Reference: patent publication US20260028354A1, “TETRAHYDRONAPHTHALENE DERIVATIVES AS ESTROGEN RECEPTOR DEGRADERS” (REGENT OF THE UNIVERSITY OF MICHIGAN, priority 2022, published 2026)
pIC50: −log10 of the molar value. Like-named read-outs stand apart in the source and are kept apart here.

Assays:
ERα_LBD (GST) = ERα_LBD (GST) (Homo sapiens (Human), UniProt P03372); test: IC50 measurements for binding to ERα_LBD (GST), LanthaScreen TR-FRET competitive binding; settings: ERα_LBD (GST) 4 nM, Fluormone ES2 Green tracer, 60 min; read-out: ERα HTRF IC50
Chain of ERα_LBD (GST) (P03372 311-547): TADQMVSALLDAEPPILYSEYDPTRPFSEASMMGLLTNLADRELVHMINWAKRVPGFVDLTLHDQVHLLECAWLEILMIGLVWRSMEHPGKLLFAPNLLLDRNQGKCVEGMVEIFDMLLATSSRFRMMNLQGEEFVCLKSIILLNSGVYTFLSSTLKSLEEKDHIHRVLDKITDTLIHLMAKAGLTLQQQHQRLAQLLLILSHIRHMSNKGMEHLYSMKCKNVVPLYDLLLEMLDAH
Outline: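 Competitive TR-FRET displacement of Fluormone ES2 Green tracer (3 nM) from GST-tagged human ERα LBD (4 nM) with Tb anti-GST (2 nM), in nuclear receptor buffer K plus 5 mM DTT, 1% DMSO. 60 min at room temperature, dark; 520/495 nm ratio vs log[compound] fitted sigmoidally for IC50.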

ER in MCF-7 cells = ER in MCF-7 cells (Homo sapiens (Human), UniProt P03372); test: In-cell Western (ICW) ER degradation assay in MCF-7 cells; type: cell-based; settings: for DC50: MCF-7, ER degradation, read-out: MCF7 DC50
Chain of ER in MCF-7 cells (P03372 whole entry): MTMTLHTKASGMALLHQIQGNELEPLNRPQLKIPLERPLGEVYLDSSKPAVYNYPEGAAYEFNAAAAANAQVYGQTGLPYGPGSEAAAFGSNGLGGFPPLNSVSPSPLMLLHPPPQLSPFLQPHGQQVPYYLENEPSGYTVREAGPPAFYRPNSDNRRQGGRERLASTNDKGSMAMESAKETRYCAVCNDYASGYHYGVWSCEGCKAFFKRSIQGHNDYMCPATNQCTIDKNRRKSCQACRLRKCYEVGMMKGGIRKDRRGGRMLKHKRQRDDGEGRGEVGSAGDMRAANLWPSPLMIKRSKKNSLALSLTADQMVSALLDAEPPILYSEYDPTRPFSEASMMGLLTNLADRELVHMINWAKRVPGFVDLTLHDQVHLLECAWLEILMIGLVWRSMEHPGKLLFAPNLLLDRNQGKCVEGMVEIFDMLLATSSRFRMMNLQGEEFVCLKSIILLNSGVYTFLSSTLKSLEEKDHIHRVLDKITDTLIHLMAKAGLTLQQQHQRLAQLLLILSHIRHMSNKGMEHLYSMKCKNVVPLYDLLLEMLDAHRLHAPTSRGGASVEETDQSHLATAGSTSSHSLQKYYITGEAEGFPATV

ER in T47D cells = ER in T47D cells (Homo sapiens (Human), UniProt P03372); test: In-cell Western (ICW) ER degradation assay in T47D cells; type: cell-based; settings: for DC50: ER degradation
Chain of ER in T47D cells (P03372 whole entry): as above

MCF-7 cells = test: CellTiter-Glo (CTG) cell proliferation assay in MCF-7 cells; type: cell-based; settings: Homo sapiens, MCF7, 144 h, MCF-7 cell proliferation, Day 6
Source text: (§1) CellTiter-Glo® (CTG) Assays in MCF-7 and T47D Cell Lines.
(§2) In vitro Assay: MCF-7 and T47D CTG assay

T47D cells = test: CellTiter-Glo (CTG) cell proliferation assay in T47D cells; type: cell-based; settings: Homo sapiens, 144 h, Day 6
Source text: as §1, §2

CRBN/DDB1 = CRBN/DDB1 (Homo sapiens (Human), UniProt Q96SW2); type: binding; settings: His tagged CRBN+DDB1, Cy5-labeled Thalidomide probe, one hour; read-out: CRBN HTRF IC50
Chain of CRBN/DDB1 (Q96SW2 whole entry, species assumed): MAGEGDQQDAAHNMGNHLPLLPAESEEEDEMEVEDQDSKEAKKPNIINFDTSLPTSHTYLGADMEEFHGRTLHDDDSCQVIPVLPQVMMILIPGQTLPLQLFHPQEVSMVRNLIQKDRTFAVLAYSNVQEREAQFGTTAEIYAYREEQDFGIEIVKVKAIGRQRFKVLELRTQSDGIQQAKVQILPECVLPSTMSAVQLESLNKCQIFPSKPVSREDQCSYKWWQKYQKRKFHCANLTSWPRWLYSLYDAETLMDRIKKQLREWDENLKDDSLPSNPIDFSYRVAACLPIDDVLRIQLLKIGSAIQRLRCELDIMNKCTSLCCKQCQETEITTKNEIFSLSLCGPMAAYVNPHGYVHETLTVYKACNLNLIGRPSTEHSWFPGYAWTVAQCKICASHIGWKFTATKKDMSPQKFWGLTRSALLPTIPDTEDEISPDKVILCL
Chain of CRBN/DDB1 (Q16531 whole entry partner, species assumed): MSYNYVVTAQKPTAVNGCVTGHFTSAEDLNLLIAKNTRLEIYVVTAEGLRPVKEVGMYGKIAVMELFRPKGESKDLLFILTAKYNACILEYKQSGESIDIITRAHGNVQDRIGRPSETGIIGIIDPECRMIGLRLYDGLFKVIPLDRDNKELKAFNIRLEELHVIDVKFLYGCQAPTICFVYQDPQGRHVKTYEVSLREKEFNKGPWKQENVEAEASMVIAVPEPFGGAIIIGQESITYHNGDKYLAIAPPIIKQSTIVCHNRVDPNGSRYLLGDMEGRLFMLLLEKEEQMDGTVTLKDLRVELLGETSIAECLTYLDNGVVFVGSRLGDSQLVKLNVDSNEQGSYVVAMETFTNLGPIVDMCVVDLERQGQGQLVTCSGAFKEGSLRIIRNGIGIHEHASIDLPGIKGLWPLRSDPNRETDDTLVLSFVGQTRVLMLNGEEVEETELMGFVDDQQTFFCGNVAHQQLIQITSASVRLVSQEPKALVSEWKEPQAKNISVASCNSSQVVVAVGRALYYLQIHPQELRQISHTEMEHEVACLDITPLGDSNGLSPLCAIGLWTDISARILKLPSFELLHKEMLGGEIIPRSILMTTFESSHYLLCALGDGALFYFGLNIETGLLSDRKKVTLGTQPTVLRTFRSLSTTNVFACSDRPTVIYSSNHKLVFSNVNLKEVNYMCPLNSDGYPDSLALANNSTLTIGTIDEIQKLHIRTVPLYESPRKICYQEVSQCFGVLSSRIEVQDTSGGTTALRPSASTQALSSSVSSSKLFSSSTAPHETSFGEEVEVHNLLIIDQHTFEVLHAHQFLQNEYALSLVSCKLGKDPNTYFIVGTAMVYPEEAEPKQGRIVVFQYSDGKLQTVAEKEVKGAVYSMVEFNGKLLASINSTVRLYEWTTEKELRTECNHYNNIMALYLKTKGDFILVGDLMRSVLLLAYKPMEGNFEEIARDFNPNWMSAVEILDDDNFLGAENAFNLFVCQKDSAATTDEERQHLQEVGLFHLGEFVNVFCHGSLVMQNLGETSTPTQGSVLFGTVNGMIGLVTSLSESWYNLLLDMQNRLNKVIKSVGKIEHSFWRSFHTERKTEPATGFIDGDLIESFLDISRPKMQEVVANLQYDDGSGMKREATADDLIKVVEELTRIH
Description: The binding potency was determined using HTRF assay technology (Perkin Elmer). Compounds were serially diluted in DMSO and […] volume was transferred to white 384-well plate.

[1] = MCF7, MCF-7, maximal ER degradation, 16 hrs treatment, read-out: MCF7 Dmax
[2] = maximal ER degradation, 16 hrs treatment, read-out: T47D Dmax
[3] = MCF7, read-out: MCF7 Dmax, MCF-7, maximal ER degradation, 16 hrs treatment

Row | SMILES | pIC50 (ERα_LBD (GST)) | Dmax (ER in MCF-7 cells; [1]) [%] | DC50 (ER in MCF-7 cells; 16 hrs treatment) [nM] | DC50 (ER in T47D cells; 16 hrs treatment) [nM] | Dmax (ER in T47D cells; [2]) [%] | pIC50 (MCF-7 cells) | pIC50 (T47D cells) | Dmax (ER in MCF-7 cells; [3]) [%] | pIC50 (CRBN/DDB1) | Dmax (ER in T47D cells; read-out: T47D Dmax, T47D, maximal ER degradation, 16 hrs treatment) [%]
1 | COc1cc(N2CCC3(CC2)CC(CN2CCC(c4ccc(N[C@@H]5CCC(=O)NC5=O)cc4)CC2)C3)c(F)cc1[C@@H]1c2ccc(O)cc2CC[C@@H]1c1ccccc1 (single isomer, unassigned) [Compound A31] | > 8.00 | 50 to 75 | < 1 | < 1 | > 75 | 7.00 to 8.00 | < 7.00 |  |  | 
2 | COc1cc(N2CCC3(CC2)C[C@H](CN2CCN4c5ccc6c(c5OC[C@H]4C2)CN([C@H]2CCC(=O)NC2=O)C6=O)CO3)c(F)cc1[C@@H]1c2ccc(O)cc2CC[C@@H]1c1ccccc1 [Compound A174, (S)-3-((R)-7-(((R)-8-(2-fluoro-4-((1S,2S)-6-hydroxy-2-phenyl-1,2,3,4-tetrahydronaphthalen-1-yl)-5-methoxyphenyl)-1-oxa-8-azaspiro[4.5]decan-3-yl)methyl)-1-oxo-1,3,5,5a,6,7,8,9-octahydro-2H-pyrazino[1′,2′:4,5][1,4]oxazino[2,3-e]isoindol-2-yl)piperidine-2,6-dione] | > 8.00 | > 75 | < 1 | < 1 | > 75 | > 8.00 | > 8.00 |  |  | 
3 | COc1cc(N2CCC(CN3CCN4c5ccc6c(c5OCC4C3)CN([C@H]3CCC(=O)NC3=O)C6=O)CC2)c(F)cc1[C@@H]1c2ccc(O)cc2CC[C@@H]1c1ccccc1 (stereo in doubt) [Compound A35, (S)-3-((S)-7-((1-(2-fluoro-4-((1S,2S)-6-hydroxy-2-phenyl-1,2,3,4-tetrahydronaphthalen-1-yl)-5-methoxyphenyl)piperidin-4-yl)methyl)-1-oxo-1,3,5,5a,6,7,8,9-oCtahydro-2H-pyrazino[1′,2′: 4,5][1,4]oxazino[2,3-e]isoindol-2-yl)piperidine-2,6-dione] | > 8.00 |  | < 1 | < 1 | > 75 | 7.00 to 8.00 | 7.00 to 8.00 | > 75 |  | 
4 | O=C1CC[C@H](N2Cc3cc4c(cc3C2=O)OC[C@@H]2CN(CC3COC5(C3)CN(c3ccc([C@H]6c7ccc(O)cc7CC[C@H]6c6ccccc6)cc3)C5)CCN42)C(=O)N1 (single isomer, unassigned) [Compound A43] | > 8.00 | 50 to 75 | < 1 | < 1 | > 75 | 7.00 to 8.00 | 7.00 to 8.00 |  | 6.30 to 7.30 | 
5 | COc1cc(N2CCC3(CC2)C[C@H](CN2CCC4(CC2)COc2cc5c(cc24)CN([C@H]2CCC(=O)NC2=O)C5=O)CO3)c(F)cc1[C@@H]1c2ccc(O)cc2CC[C@@H]1c1ccccc1 [Compound A175, (S)-3-(1′-(((R)-8-(2-fluoro-4-((1S,2S)-6-hydroxy-2-phenyl-1,2,3,4-tetrahydronaphthalen-1-yl)-5-methoxyphenyl)-1-oxa-8-azaspiro[4.5]decan-3-yl)methyl)-7-oxo-5,7-dihydro-2H,6H-spiro[furo[2,3-f]isoindole-3,4′-piperidin]-6-yl)piperidine-2,6-dione] | > 8.00 |  | < 1 | < 1 |  | > 8.00 | > 8.00 | > 75 |  | > 75
6 | COc1cc(N2CCC3(CC2)C[C@@H](CN2CCN4c5cc6c(cc5OC[C@@H]4C2)C(=O)N([C@H]2CCC(=O)NC2=O)C6)CO3)ccc1[C@@H]1c2ccc(O)cc2CC[C@@H]1c1ccccc1 (single isomer, unassigned) [Compound A136] | > 8.00 | > 75 | < 1 | < 1 | > 75 | > 8.00 | > 8.00 |  | 5.30 to 6.30 | 
